Test results reported in patent US12427200B2 (priority 2019, dated 2025).
Values joined by “and” are separate entries in the source; they are usually repeats but may differ in a detail not shown here. Equal values may be shown once. Read-outs that look alike come from different tables or passages of the source.

Tests used:
[1] = target: neuraminidase of live influenza A (H1N1) viruses (Influenza A virus, UniProt P03468); assay: biochemical; format: biochemical
[2] = target: neuraminidase of live influenza A (H1N1) viruses (Influenza A virus, UniProt C3W6G3); assay: biochemical; format: biochemical
[3] = target: neuraminidase of influenza B viruses (Influenza B virus, UniProt A0A1X9RX69); format: biochemical
[4] = tested on: INF-γ, TNF-α, IL-6, MIP-1α, MCP-1 in lung homogenate; set-up: species or system BALB/c mice; conditions: mouse, in vivo
[5] = tested on: A/Texas/36/91 (H1N1); conditions: mouse, in vivo
[6] = tested on: neuraminidase of live influenza A (H1N1) viruses; assay: biochemical; format: biochemical, Influenza A virus; conditions: read-out: neuraminidase inhibition (median IC50)
[7] = tested on: INFV A (A/CA/09 H1N1); assay: microbe, parasite or virus in culture; format: cell-based, Influenza A virus; conditions: read-out: EC50 vs INFV A
[8] = tested on: H3N2 A/Hong Kong/1/68; format: in vivo, mouse; conditions: 15 days
[9] = tested on: INFV B (B/Brisbane); assay: microbe, parasite or virus in culture; format: cell-based, Influenza B virus; conditions: read-out: EC50 vs INFV B
[10] = tested on: A/Hong Kong/156/1997 (H5N1, clade 0); format: cell-based, Influenza A virus
[11] = tested on: A/Puerto Rico/8/1934 (H1N1); conditions: mouse, in vivo
[12] = tested on: lung cytokines; set-up: species or system BALB/c mice; conditions: mouse, in vivo, po
[13] = tested on: lung cytokines; set-up: species or system BALB/c mice; conditions: mouse, in vivo, po, 5 mg/kg
[14] = tested on: A/turkey/Turkey/1/2005 (H5N1, clade 2.2); format: cell-based, Influenza A virus
[15] = tested on: influenza A/CA/07/2009 (H1N1) pdm; format: cell-based, Influenza A virus
[16] = tested on: H7N9 isolate (high path influenza A); format: cell-based, Influenza A virus
[17] = tested on: H1N1 WT (A/California/12/2012); format: cell-based, Influenza A virus
[18] = tested on: influenza A H3N2 strains; set-up: species or system Influenza A virus; conditions: read-out: cell-based cytopathic effect assay (median EC50)
[19] = tested on: A/Texas/36/91 (H1N1); set-up: species or system BALB/c mice; conditions: mouse, in vivo
[20] = tested on: B/Brisbane/60/2008; set-up: species or system BALB/c mice; conditions: mouse, in vivo
[21] = tested on: influenza A/Ca/07/2009 (H1N1)pdm; format: cell-based, Influenza A virus
[22] = tested on: neuraminidase of live influenza A (H3N2) viruses; assay: biochemical; set-up: species or system Influenza A virus; conditions: read-out: neuraminidase inhibition (median IC50)
[23] = tested on: influenza A/PR/8/1934; set-up: species or system BALB/c mice; conditions: mouse, in vivo; for Log reduction PFU/g / Viral burden PFU/g: po
[24] = tested on: A/Indonesia/5/2005 (H5N1, clade 2.1); format: cell-based, Influenza A virus
[25] = tested on: H3N2 WT (A/Washington/12/2007); format: cell-based, Influenza A virus
[26] = tested on: A/Vietnam/1203/2004 (H5N1); set-up: species or system BALB/c mice; conditions: mouse, in vivo
[27] = tested on: influenza A/Puerto Rico/8/1934 (H1N1); set-up: species or system BALB/c mice; conditions: mouse, in vivo
[28] = tested on: neuraminidase of influenza B viruses; format: biochemical; conditions: read-out: neuraminidase inhibition (median IC50)
[29] = tested on: A/Netherlands/602/2009 (H1N1); format: cell-based, Influenza A virus
[30] = tested on: influenza B strains; set-up: species or system Influenza B virus; conditions: read-out: cell-based cytopathic effect assay (median EC50)
[31] = tested on: A/Anhui/01/2013 (H7N9); format: cell-based, Influenza A virus
[32] = tested on: influenza A H1N1 strains; set-up: species or system Influenza A virus; conditions: read-out: cell-based cytopathic effect assay (median EC50)
[33] = tested on: B (B/Malaysia/2506/2004); format: cell-based, Influenza B virus
[34] = tested on: A/Puerto Rico/08/1934 (H1N1), PR8; format: in vivo, mouse; conditions: 10 days
[35] = tested on: influenza B; format: cell-based, Influenza B virus
[36] = tested on: influenza A/CA/07/2009; set-up: species or system BALB/c mice; conditions: mouse, in vivo, po, 5 mg/kg
[37] = tested on: H5N1 isolates (high path influenza A); format: cell-based, Influenza A virus
[38] = tested on: A/PR/8/34 (H1N1); set-up: species or system BALB/c mice; conditions: mouse, in vivo
[39] = tested on: A/CA/12/12 (H1N1); set-up: species or system BALB/c mice; conditions: mouse, in vivo
[40] = tested on: A/Puerto Rico/8/1934 (H1N1); set-up: species or system BALB/c mice; conditions: mouse, in vivo
[41] = tested on: influenza A/WSN/1933; format: cell-based, Influenza A virus
[42] = tested on: Influenza B/Florida/4/2006; assay: microbe, parasite or virus in culture; conditions: MDCK
[43] = tested on: Influenza A/Anhui/1/2013 (H7N9); assay: microbe, parasite or virus in culture; conditions: H7N9, MDCK
[44] = tested on: Influenza B/Brisbane/60/2008; assay: microbe, parasite or virus in culture; conditions: MDCK, read-out: EC50, B/Brisbane/60/2008 (Victoria lineage)
[45] = read-out: IC50 for viral replication
[46] = read-out: microneutralization (IC50)

## C#CCOCCOCCOCCOCCN(CCOCCN(C)C(=O)O[C@@H]([C@@H]1OC(C(=O)O)=C[C@H](NC(=N)N)[C@H]1NC(C)=O)[C@H](O)CO)CCOCCN(C)C(=O)O[C@@H]([C@@H]1OC(C(=O)O)=C[C@H](NC(=N)N)[C@H]1NC(C)=O)[C@H](O)CO [Int-83]
[1]
  IC50: 4.23 nM
[2]
  IC50: 28.6 nM
[3]
  IC50: 125 nM

## CCOC(=O)C1=C[C@@H](OC(CC)CC)[C@H](NC(C)=O)[C@@H](N)C1 [Oseltamivir, oseltamivir]
[4]
  IL-6 lung cytokine level: 1.8 and 1.4
[5]
  % Survival (Day 14): […]
[6]
  IC50: […]
[7]
  EC50: 390 nM
[8]
  % Survival: […]
[9]
  EC50: 1060 nM
[10]
  EC100 (CPE in MDCK cells): […]
[11]
  loss of body weight: 14%
  protection (survival): fully protected
[12]; 5 mg/kg
  IL-6: 714.2 pg/mL
  MCP-1: 5301.6 pg/mL
[12]; 50 mg/kg
  KC: 2705.5 pg/mL
  MCP-1: 4572.8 pg/mL
  MIP-1α: 948.2 pg/mL
  TNF-α: 501.7 pg/mL
[13]
  IL-6: 714.2 pg/mL
[14]
  EC100 (CPE in MDCK cells): ~125 to 250 nM
[15]
  EC50: 18.5 nM and 34.2 nM
[16]; [45]
  IC50: ≥ 300 nM
[16]; [46]
  IC50: > 300 nM
[17]
  EC50: […]
[18]
  EC50: 8180 nM
[19]
  Protection: no protection
[19]; 200 mg/kg
  Survival: […]
[20]
  Survival: […]
[21]; read-out: EC50, MOI 0.1
  EC50: […]
[21]; read-out: EC50, MOI 1
  EC50: […]
[22]
  IC50: […]
[23]
  Viral load reduction: […]
[23]; 5 mg/kg
  Log reduction PFU/g: 0.83
  Viral burden PFU/g: 2.86E+06 PFU/g
[23]; 50 mg/kg
  Log reduction PFU/g: 0.86
  Viral burden PFU/g: 2.66E+06 PFU/g
[24]
  EC100 (CPE in MDCK cells): […]
[25]
  EC50: 29.6 nM
[26]
  Protection: 90%
[27]
  Log reduction (PFU/mL): […]
[28]
  IC50: […]
[29]
  EC100 (CPE in MDCK cells): […]
[29]; [45]
  IC50: ≥ 300 nM
[29]; [46]
  IC50: > 300 nM
[30]
  EC50: 758 nM
[31]
  EC100 (CPE in MDCK cells): […]
[32]
  EC50: […]
[33]
  EC50: […]
[34]
  % Survival: 20%
[35]; read-out: CPE against influenza B, EC50, B/Brisbane
  EC50: 969 nM
[35]; read-out: CPE against influenza B, EC50, B/Florida
  EC50: […]
[35]; read-out: CPE against influenza B, EC50, B/Malaysia
  EC50: 5690 nM
[36]
  Viral burden PFU/g: 2.05E+07 PFU/g
[37]; [45]
  IC50: ≥ 300 nM and 169 nM
[37]; [46]
  IC50: 169 nM and > 300 nM
[38]
  Survival: 0%
[39]
  Protection from lethal challenge: unprotective
[40]
  Survival: 0%
[40]; 200 mg/kg
  Survival: […]
[41]; read-out: EC50, MOI 0.001
  EC50: 3910 nM
[41]; read-out: EC50, MOI 0.01
  EC50: […]
[41]; read-out: EC50, MOI 0.1
  EC50: […]
[41]; read-out: EC50, MOI 1
  EC50: […]
[41]; read-out: EC50, MOI 10
  EC50: […]

## NC(=O)c1ncn([C@@H]2O[C@H](CO)[C@@H](O)[C@H]2O)n1 [ribavirin]
[42]
  EC50: 3250 nM
[42]; read-out: EC50, B/Florida/4/2006 (Yamagata lineage)
  EC50: 3250 nM
[43]
  EC50: 14000 nM
[43]; read-out: EC50, A/Anhui/1/2013 (H7N9) (zoonotic avian)
  EC50: 14000 nM
[44]
  EC50: 3300 nM
